According to patent US20180282605A1, “METHOD OF MONITORING A PARAMETER OF A HYDROCARBON WELL, PIPELINE OR FORMATION” (JOHNSON MATTHEY PUBLIC LIMITHED COMPANY, priority 2015, published 2018):

experiment: log P (octanol/water) of tracer anions; assay type: physicochemical; details: log of ratio of equilibrium concentration in oil (octanol) to that in water, representative example values
Source text: The invention concerns the use of halogenated thiophene carboxylic acids or halogenated thiophene sulfonic acids, or salts of either, in tracing applications in hydrocarbon wells. Such compounds are not naturally found in hydrocarbon wells and formations and have not been previously used as tracers in such wells and formations. Tracers comprising such compounds may therefore be used as tracers in such wells and formations without the results of the tracing being affected by contamination. Moreover, the applicant has determined that non-halogenated thiophene compounds exist naturally in hydrocarbon formations and the compounds of the invention are therefore expected to be sufficiently stable, for example to have sufficient thermal stability, to survive the conditions in a hydrocarbon well. Since, unlike the naturally occurring thiophene compounds, the compounds of formula 1 are halogenated they are advantageously also detectable, for example using GC-MS, in very low concentrations, for example concentrations of 1 ppb or less, preferably concentrations of 100 ppt or less, more preferably concentrations of 10 ppt or less and yet more preferably concentrations of 1 ppt or less. The compounds of the invention may also show a high selectivity towards water instead of oil. Thus the tracer may be a water tracer. […] The log P value is a well-known value for characterising the preference of a compound for water or oil. The value is the log of the ratio of the equilibrium concentration of the compound in oil (octanol) to the equilibrium concentration of the compound in water. Thus the concentration of the compound in water is preferably at least 10 times, and more preferably at least 100 times, that of the compound in oil. It may be that the salt of the compound (or the anion of the salt) is more soluble in water than the acid. For that reason, it is preferable to use the salt as the tracer.

Row | Compound | logP
1 | O=C(O)c1csc(Cl)c1 | -1.35
2 | Cc1cc(C(=O)O)sc1F | -1.16
3 | O=C(O)c1csc(F)c1 | -1.81
